In patent US20060276464A1, “Diarylsulfone sulfonamides and use thereof” (Wyeth, priority 2005, published 2006):
“And” between values parts separate entries of the source, which are not always exact repeats. Equal entries are not always repeated. Where two headings read alike, the source gives them in different places.

Experiments:
SFRP-1 [1] = target: T1, SFRP-1 (Homo sapiens, UniProt Q8N474); assay: Cell-based assay for in vitro measurement of SFRP-1/SARP2 antagonist activity (U2OS cells co-transfected with 16x TCF-tk-Luciferase reporter, Wnt and hSFRP-1); conditions: for fold induction at 15 µM / fold induction at 10 µM: U2OS; for fold induction at 10 µM: read-out: Fold Induction with SFRP-1, U2OS cells, single dose 10 μM, luciferase reporter, fold induction over SFRP-1 control;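 for all read-outs here: U2OS cells co-transfected with a TCF-tk luciferase reporter, a Wnt vector, hSFRP-1 or empty vector and CMV-βgal, luciferase luminescence read in cell lysates alongside βgal activity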
T1 sequence (Q8N474 32-314): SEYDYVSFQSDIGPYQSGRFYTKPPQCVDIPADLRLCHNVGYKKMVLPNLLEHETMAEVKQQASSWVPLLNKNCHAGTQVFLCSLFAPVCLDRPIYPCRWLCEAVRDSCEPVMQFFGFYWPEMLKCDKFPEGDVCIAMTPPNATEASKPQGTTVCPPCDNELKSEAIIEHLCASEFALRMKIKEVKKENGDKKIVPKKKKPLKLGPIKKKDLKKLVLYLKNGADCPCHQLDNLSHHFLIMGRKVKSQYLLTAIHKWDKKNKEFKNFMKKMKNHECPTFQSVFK

SFRP-1 [2] = target: T1, SFRP-1; assay: Fluorescence polarization binding assay (competitive displacement of a probe compound from SFRP-1); conditions: fluorescence anisotropy, 45 nM SFRP-1, 20 nM probe;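 note: test compound competes with a fluorescent probe held by SFRP-1, seen as a drop in probe anisotropy after incubation in darkness, with anisotropy as function of rising compound dose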
[3] = read-out: Fold Induction with SFRP-1, Conc 15 μM, with SFRP-1, fold induction over SFRP-1 control, single dose
[4] = read-out: Fold Induction without SFRP-1, Conc 15 μM, without SFRP-1, single dose

fold induction at 15 µM (SFRP-1 [1]; [3])	fold induction at 15 µM (SFRP-1 [1]; [4])	IC50 (SFRP-1 [2])	SMILES	other results
4	1	400 nM and 200 nM and 300 nM	CC(C)c1ccc(S(=O)(=O)c2ccc(NCCC#N)cc2)cc1S(=O)(=O)NCCn1ccnc1 [Example 450, 5-({4-[(2-cyanoethyl)amino]phenyl}sulfonyl)-N-[2-(1H-imidazol-1-yl)ethyl]-2-isopropylbenzenesulfonamide]	
		300 nM	N=C(N)Nc1ccc(CCNS(=O)(=O)c2cc(S(=O)(=O)c3ccccc3)ccc2C(F)(F)F)cc1 [Example 998, N-[2-(4-{[amino(imino)methyl]amino}phenyl)ethyl]-5-(phenylsulfonyl)-2-(trifluoromethyl)benzenesulfonamide]	EC50 (SFRP-1 [1]): 2200 nM
		4000 nM	Cc1cc(C)c(S(=O)(=O)c2ccccc2)cc1S(=O)(=O)NC1CCN(C(=O)OC(C)(C)C)CC1 [Example 911, tert-butyl 4-({[2,4-dimethyl-5-(phenylsulfonyl)phenyl]sulfonyl}amino)piperidine-1-carboxylate]	EC50 (SFRP-1 [1]): 2420 nM; fold induction at 10 µM (SFRP-1 [1]): 1.9
		90 nM	COc1cccc(S(=O)(=O)c2ccc(C(F)(F)F)c(S(=O)(=O)NCCc3cccnc3)c2)c1 [Example 747, 5-[(3-methoxyphenyl)sulfonyl]-N-(2-pyridin-3-ylethyl)-2-(trifluoromethyl)benzenesulfonamide]	EC50 (SFRP-1 [1]): 779 nM; fold induction at 10 µM (SFRP-1 [1]): 5.7
1.7	1	700 nM	CC(C)(C)c1ccc(S(=O)(=O)c2ccccc2)cc1S(=O)(=O)NCCc1ccccn1 [Example 461, 2-tert-butyl-5-(phenylsulfonyl)-N-(2-pyridin-2-ylethyl)benzenesulfonamide]	
		40 nM	CSCCC(=O)N1CCC(NS(=O)(=O)c2cc(S(=O)(=O)c3ccccc3)ccc2C(F)(F)F)CC1 [Example 1053, N-{1-[3-(methylthio)propanoyl]piperidin-4-yl}-5-(phenylsulfonyl)-2-(trifluoromethyl)benzenesulfonamide]	EC50 (SFRP-1 [1]): 190 nM
		7000 nM	CC(C)c1ccc(S(=O)(=O)c2ccccc2)cc1S(=O)(=O)NC1CCC(C(=O)O)CC1 (stereo not shown) [Example 953, 4-({[2-isopropyl-5-(phenylsulfonyl)phenyl]sulfonyl}amino)cyclohexanecarboxylic acid]	fold induction at 10 µM (SFRP-1 [1]): 1.5
		800 nM	N#Cc1cccc(N2CCC(NS(=O)(=O)c3cc(S(=O)(=O)c4ccccc4)ccc3C(F)(F)F)CC2)c1 [Example 986, N-[1-(3-cyanophenyl)piperidin-4-yl]-5-(phenylsulfonyl)-2-(trifluoromethyl)benzenesulfonamide]	
		4000 nM	CN(C(=O)NCCNS(=O)(=O)c1cc(S(=O)(=O)c2ccccc2)ccc1C(F)(F)F)C1CCN(C(=O)OC(C)(C)C)CC1 [Example 1045, tert-butyl 4-[methyl({[2-({[5-(phenylsulfonyl)-2-(trifluoromethyl)phenyl]sulfonyl}amino)ethyl]amino}carbonyl)amino]piperidine-1-carboxylate]	
		2300 nM	O=S(=O)(NCc1cccc(Br)c1)c1cc(S(=O)(=O)c2ccccc2)ccc1C(F)(F)F [Example 994, N-(3-bromobenzyl)-5-(phenylsulfonyl)-2-(trifluoromethyl)benzenesulfonamide]	
		8000 nM	CN(CCNS(=O)(=O)c1cc(S(=O)(=O)c2ccccc2)ccc1C(F)(F)F)CCC(=O)O [Example 982, N-methyl-N-[2-({[5-(phenylsulfonyl)-2-(trifluoromethyl)phenyl]sulfonyl}amino)ethyl]-β-alanine]	
		4000 nM	CN(CCCNS(=O)(=O)c1cc(S(=O)(=O)c2ccccc2)ccc1C(F)(F)F)C(=O)N1CCN(C(=O)OC(C)(C)C)CC1 [Example 974, tert-butyl 4-({methyl[3-({[5-(phenylsulfonyl)-2-(trifluoromethyl)phenyl]sulfonyl}amino)propyl]amino}carbonyl)piperazine-1-carboxylate]	
		6000 nM	O=C(O)c1cccc(-c2ccc(CNS(=O)(=O)c3cc(S(=O)(=O)c4ccccc4)ccc3C(F)(F)F)cc2)c1 [Example 976, 4′-[({[5-(phenylsulfonyl)-2-(trifluoromethyl)phenyl]sulfonyl}amino)methyl]biphenyl-3-carboxylic acid]	
		13000 nM	CC(C)C(CO)NS(=O)(=O)c1cc(S(=O)(=O)c2ccccc2)ccc1C(F)(F)F (stereo not shown) [Example 769, N-[1-(hydroxymethyl)-2-methylpropyl]-5-(phenylsulfonyl)-2-(trifluoromethyl)benzenesulfonamide]	
		3000 nM	CN(CCNS(=O)(=O)c1cc(S(=O)(=O)c2ccccc2)ccc1C(F)(F)F)C(=O)N(C)C1CCN(C(=O)OC(C)(C)C)CC1 [Example 989, tert-butyl 4-[methyl({methyl[2-({[5-(phenylsulfonyl)-2-(trifluoromethyl)phenyl]sulfonyl}amino)ethyl]amino}carbonyl)amino]piperidine-1-carboxylate]	
		13000 nM	CN(CCNS(=O)(=O)c1cc(S(=O)(=O)c2ccccc2)ccc1C(F)(F)F)CC(=O)O [Example 981, N-methyl-N-[2-({[5-(phenylsulfonyl)-2-(trifluoromethyl)phenyl]sulfonyl}amino)ethyl]glycine]	
1.2	0.9		Cc1ccc(S(=O)(=O)c2ccc(C(C)(O)c3ccccc3)cc2)cc1S(=O)(=O)NCCc1ccccn1 (stereo not shown) [Example 407, 5-{[4-(1-hydroxy-1-phenylethyl)phenyl]sulfonyl}-2-methyl-N-(2-pyridin-2-ylethyl)benzenesulfonamide]	
2.3	0.9		Cc1ccc(S(=O)(=O)c2ccc(F)cc2)cc1S(=O)(=O)NCCCN1CCCC1=O [Example 170, 5-[(4-fluorophenyl)sulfonyl]-2-methyl-N-[3-(2-oxopyrrolidin-1-yl)propyl]benzenesulfonamide]	
2.7	1		Cc1ccc(S(=O)(=O)c2ccc(F)cc2)cc1S(=O)(=O)NCCC#N [Example 161, N-(2-cyanoethyl)-5-[(4-fluorophenyl)sulfonyl]-2-methylbenzenesulfonamide]	
2.7	1.3		Cc1ccc(S(=O)(=O)c2cccc3ccccc23)cc1S(=O)(=O)NCCc1ccccn1 [Example 410, 2-methyl-5-(1-naphthylsulfonyl)-N-(2-pyridin-2-ylethyl)benzenesulfonamide]	
			CC(C)(C)c1ccc(C(=O)NCCNS(=O)(=O)c2cc(S(=O)(=O)c3ccccc3)ccc2C(F)(F)F)cc1 [Example 776, 4-tert-Butyl-N-[2-({[5-(phenylsulfonyl)-2-(trifluoromethyl)phenyl]sulfonyl}amino)ethyl]benzamide]	fold induction at 10 µM (SFRP-1 [1]): 0.9
3	1		Cc1ccc(S(=O)(=O)c2ccc(F)cc2)cc1S(=O)(=O)NCCc1c[nH]cn1 [Example 167, 5-[(4-fluorophenyl)sulfonyl]-N-[2-(1H-imidazol-4-yl)ethyl]-2-methylbenzenesulfonamide]	
			Cc1c(S(=O)(=O)NCCc2ccccn2)cccc1S(=O)(=O)c1ccccc1 [Example 494, 2-methyl-3-(phenylsulfonyl)-N-(2-pyridin-2-ylethyl)benzenesulfonamide]	fold induction at 15 µM (SFRP-1 [1]; read-out: Fold Induction with SFRP-1, Conc 15 μM, single dose, luciferase reporter, fold induction over SFRP-1 control, cells with SFRP-1): 1; fold induction at 15 µM (SFRP-1 [1]; read-out: Fold Induction without SFRP-1, Conc 15 μM, single dose, luciferase reporter, cells without SFRP-1 (specificity control)): 1.1
